By IC50 is commonly meant the point on the concentration scale where inhibition reaches its midpoint.

The target of this assay is T1, Calpain-1 catalytic subunit (Homo sapiens, UniProt P07384).
T1 sequence (P07384 whole entry): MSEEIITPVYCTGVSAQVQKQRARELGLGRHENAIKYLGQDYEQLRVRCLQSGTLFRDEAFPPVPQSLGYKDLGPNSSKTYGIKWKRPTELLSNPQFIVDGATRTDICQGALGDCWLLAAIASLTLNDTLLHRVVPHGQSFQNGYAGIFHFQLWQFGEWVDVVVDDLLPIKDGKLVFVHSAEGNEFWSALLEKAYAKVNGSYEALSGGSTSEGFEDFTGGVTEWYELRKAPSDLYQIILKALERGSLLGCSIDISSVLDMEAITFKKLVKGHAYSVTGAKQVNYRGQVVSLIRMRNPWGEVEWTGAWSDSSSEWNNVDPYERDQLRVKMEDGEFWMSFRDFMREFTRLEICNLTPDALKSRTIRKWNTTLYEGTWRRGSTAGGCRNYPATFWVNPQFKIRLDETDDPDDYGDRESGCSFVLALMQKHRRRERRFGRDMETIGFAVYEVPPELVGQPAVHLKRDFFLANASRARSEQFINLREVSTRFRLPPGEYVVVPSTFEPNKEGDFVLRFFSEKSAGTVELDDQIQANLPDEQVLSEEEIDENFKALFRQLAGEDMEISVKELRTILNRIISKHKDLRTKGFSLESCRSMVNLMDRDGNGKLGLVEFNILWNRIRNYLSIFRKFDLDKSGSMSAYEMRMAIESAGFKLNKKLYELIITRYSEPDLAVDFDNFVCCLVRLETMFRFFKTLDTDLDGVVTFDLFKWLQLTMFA
Description: Inhibitory activity against calpain.

Structures are written as SMILES.

`NC(=O)CCc1cc[nH]c1` showed an IC50 of 1400 nM.

The values above are taken from ChEMBL document CHEMBL1129109, “Synthesis of cystamidin a (pyrrole-3-propanamide), a reported calpain inhibitor” (Bioorg Med Chem Lett, 1996).
